This is an account of results in patent US20100029702A1, “Method For Identification of Compound Having Anti-Anxiety Effect” (priority 2006, published 2010).

The test concerns the target T1, hk01941 (Homo sapiens, UniProt O60241, DEL308-417).
T1 construct: a vector expressing each full-length cDNA clone was constructed; expressed in transfected cells; host or cells: CHO-K1, hk01941/pcDNA3.1
T1 sequence (O60241 with tags, fused parts or gaps DEL308-417): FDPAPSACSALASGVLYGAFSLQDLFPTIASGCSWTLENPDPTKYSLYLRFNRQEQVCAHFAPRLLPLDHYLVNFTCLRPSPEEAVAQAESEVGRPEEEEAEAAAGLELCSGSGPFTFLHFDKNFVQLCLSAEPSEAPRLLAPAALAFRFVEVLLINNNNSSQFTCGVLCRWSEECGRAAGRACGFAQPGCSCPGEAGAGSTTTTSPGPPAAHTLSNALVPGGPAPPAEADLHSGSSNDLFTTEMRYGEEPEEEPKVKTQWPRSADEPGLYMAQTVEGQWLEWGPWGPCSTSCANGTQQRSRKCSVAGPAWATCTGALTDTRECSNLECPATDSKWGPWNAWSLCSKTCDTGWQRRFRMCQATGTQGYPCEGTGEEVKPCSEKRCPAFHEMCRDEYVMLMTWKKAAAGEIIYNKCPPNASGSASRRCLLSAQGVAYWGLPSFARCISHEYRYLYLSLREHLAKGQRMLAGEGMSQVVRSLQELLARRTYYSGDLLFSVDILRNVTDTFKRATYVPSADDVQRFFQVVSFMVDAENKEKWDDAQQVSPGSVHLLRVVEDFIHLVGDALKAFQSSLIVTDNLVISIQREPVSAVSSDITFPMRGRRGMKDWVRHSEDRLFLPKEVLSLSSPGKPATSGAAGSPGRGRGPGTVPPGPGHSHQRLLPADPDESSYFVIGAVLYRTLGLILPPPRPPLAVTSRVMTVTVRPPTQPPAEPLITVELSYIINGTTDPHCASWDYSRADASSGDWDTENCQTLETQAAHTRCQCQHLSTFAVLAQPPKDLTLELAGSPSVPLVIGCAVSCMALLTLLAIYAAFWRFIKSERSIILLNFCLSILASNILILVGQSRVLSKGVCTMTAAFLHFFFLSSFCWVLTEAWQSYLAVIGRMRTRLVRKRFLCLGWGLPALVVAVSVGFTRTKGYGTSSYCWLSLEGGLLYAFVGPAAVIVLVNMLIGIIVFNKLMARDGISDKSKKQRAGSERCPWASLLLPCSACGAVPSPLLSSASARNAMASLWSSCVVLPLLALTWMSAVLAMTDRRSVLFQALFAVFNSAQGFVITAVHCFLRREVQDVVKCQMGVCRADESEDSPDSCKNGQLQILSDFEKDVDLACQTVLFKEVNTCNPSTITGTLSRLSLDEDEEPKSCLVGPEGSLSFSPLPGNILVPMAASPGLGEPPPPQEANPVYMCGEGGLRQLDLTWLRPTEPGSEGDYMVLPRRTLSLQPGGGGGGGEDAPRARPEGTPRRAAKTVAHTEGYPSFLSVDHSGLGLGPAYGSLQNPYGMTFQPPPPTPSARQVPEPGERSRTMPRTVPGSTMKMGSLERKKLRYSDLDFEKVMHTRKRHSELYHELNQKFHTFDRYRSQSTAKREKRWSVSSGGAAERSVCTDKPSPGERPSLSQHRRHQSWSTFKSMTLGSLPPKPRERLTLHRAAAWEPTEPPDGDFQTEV
Put plainly: Changes in intracellular Ca2+ concentration in hk01941 stably-expressing strain. The class given is cell-based. As for the experimental part:
The 7tmHR stably-expressing strain and the hk01941 stably-expressing strain were prepared by transfecting the 7tmHR-expressing vector (7tmHR/pcDNA3.1) and the hk01941-expressing vector (hk01941/pcDNA3.1), respectively, into a CHO-K1 cell strain. Specifically, the expression vector was mixed with Lipofectamine 2000, (may be referred to as LF2000, Invitrogen) (4 μg DNA/250 μL of DMEM/F12 medium+10 μL of LF2000/250 μL DMEM/F12 medium) and added the CHO-K1 strain (2 mL medium/well) cultured in a 6-well plate to be transfected thereinto. On the following day, cells were recovered and seeded in a 96-well plate at cell density of 1 cell/well, cultured in a selective medium containing G418 (400 μg/mL) (DMEM/F 12 medium containing 10% FCS), and screened for expression cell strains. […]
Changes in the intracellular calcium (Ca^2+) concentration induced by CCK-8S were measured by a method similar to the method described in Example 5 using the 7tmHR stably-expressing strain and the hk01941 stably-expressing strain prepared in Example 7. […]
Cells were seeded in a 96-well plate (a plate with a black wall and a transparent bottom) at a cell count of 3×10^4/100 μL of medium/well and cultured overnight at 37° C. in a 5% CO2 incubator. […] After reaction, changes over time in the fluorescence intensity in each well after addition of CCK-8S were measured using the FLEX station (Molecular Device). […]

Regarding `CNc1ccc2oc(C[C@H]3O[C@@]4(CC[C@H]3C)O[C@H]([C@H](C)C(=O)c3ccc[nH]3)[C@H](C)C[C@H]4C)nc2c1C(=O)O` [A23187], the “Change in intracellular Ca2+ concentration (fluorescence intensity)” value (hk01941/CHO#13, A23187 20 μM, positive control) is “increased”.

Consider “cholecystokinin octapeptide sulfated form [CCK-8S]”, for which, where the note is “hk01941 stably-expressing strain, CCK-8S 10 pM to 1 μM, figure at 1 nM”, the “Change in intracellular Ca2+ concentration after addition of CCK-8S” value is given as “increase”.
